For one series, the system named is Huh-7.5/F-Luc cells. As to conditions: for CC50 (µM): maximum tested dose 5 µM.
Another series concerns SARS-CoV-2. As to conditions: Calu-3 cells.
The subject of another series is HCoV-229E. Nature of the series: microbe, parasite or virus in culture. In kind it is cell-based, Homo sapiens sapiens.
The mark [1] stands for this setting: HCoV 229E infection, dose series, max. dose 5 µM, read-out: IC50.

Read-outs that look alike come from different tables or passages of the source.

By IC50 is commonly meant the midpoint of a concentration-inhibition curve.

Consider `COc1cc(/C=C/C=C/C(=O)NCCN2CCC(OC(c3ccccc3)c3ccccc3)CC2)ccc1O` [TMK-777], for which, in the series on Huh-7.5/F-Luc cells (Huh-7.5 cells, dose series), the “CC50 (µM)” value is “greater than maximum tested dose”. The “% cell viability at max. dose [5 µM]” value in the series on Huh-7.5/F-Luc cells (at max. dose 5 µM) is 150.43%. For the same molecule, in the series with SARS-CoV-2, the “Anti-SARS-CoV-2 screening on Calu-3 cells: viability [% of control]” value is given as 98.98 % of control and the “Anti-SARS-CoV-2 screening on Calu-3 cells: intracellular SARS-CoV-2 infection measured via immunofluorescence imaging [% of control]” value was 102.42 % of control. Besides, the IC50 in the series with HCoV-229E (setting [1]) was 1.13 µM.
On to `Oc1cccc[c]1[Hg][Cl]` [RFM-006-841-7], for which the “% cell viability at max. dose [5 µM]” value in the series with Huh-7.5/F-Luc cells (Huh-7.5/F-Luc cells, 5 µM) is 91.70%. The “CC50 (µM)” value in the series on Huh-7.5/F-Luc cells (Huh-7.5/F-Luc cells) was “greater than maximum tested dose”. Moreover, in the series on SARS-CoV-2, the “Anti-SARS-CoV-2 screening on Calu-3 cells: viability [% of control]” value is reported as 123.69 % of control and the “Anti-SARS-CoV-2 screening on Calu-3 cells: intracellular SARS-CoV-2 infection measured via immunofluorescence imaging [% of control]” value was 99.62 % of control. Further, in the series with HCoV-229E (HCoV-229E/R-Luc on Huh-7.5/F-Luc cells, dose series, max. dose 5 µM, read-out: IC50 (µM), HCoV 229E), the IC50 stood at 1.35 µM.
Take `C1=C(c2ccc(CN3CCCCC3)cc2)N2CCN=C2c2ccccc21` [SDZ-62-434]: in the series with Huh-7.5/F-Luc cells (Huh-7.5 cells, dose series), the “CC50 (µM)” value is reported as “greater than maximum tested dose”. Besides, the “% cell viability at max. dose [5 µM]” value in the series with Huh-7.5/F-Luc cells (at max. dose 5 µM) was 157.85%. Further, in the series with SARS-CoV-2, the “Anti-SARS-CoV-2 screening on Calu-3 cells: viability [% of control]” value is 104.96 % of control and the “Anti-SARS-CoV-2 screening on Calu-3 cells: intracellular SARS-CoV-2 infection measured via immunofluorescence imaging [% of control]” value was 96.11 % of control. The IC50 in the series with HCoV-229E (setting [1]) turned out to be 0.76 µM.
In the same order, the values of `CCNCc1cncc(-c2ccc3[nH]nc(-c4nc5c(F)cc(F)cc5[nH]4)c3c2)c1C` [AG-024322] are “greater than maximum tested dose”, 151.27%, 54.61 % of control, 108.94 % of control and 0.78 µM.
In the same order, the values of `CCN(CC)CCCN1c2ccccc2Sc2ccc(Cl)cc21.Cl` [Chlorproethazine HCl] are “greater than maximum tested dose”, 142.02%, 91.47 % of control, 133.96 % of control and 0.83 µM.
`OCCNCCOc1ccc(/C(=C(\c2ccccc2)C(F)(F)F)c2ccccc2)cc1` [PANOMIFENE]: in the series on Huh-7.5/F-Luc cells (Huh-7.5 cells, dose series), the “CC50 (µM)” value is given as “greater than maximum tested dose”. Further, the “% cell viability at max. dose [5 µM]” value with Huh-7.5/F-Luc cells (at max. dose 5 µM) stood at 141.70%. In the series with SARS-CoV-2, the “Anti-SARS-CoV-2 screening on Calu-3 cells: viability [% of control]” value was 98.59 % of control and the “Anti-SARS-CoV-2 screening on Calu-3 cells: intracellular SARS-CoV-2 infection measured via immunofluorescence imaging [% of control]” value was 95.32 % of control. Also, the IC50 in the series on HCoV-229E (read-out: IC50) is 0.89 µM.
Consider `CN1C2CCC1CC(OC(c1ccccc1)c1ccc(Cl)cc1)C2.Cl` (centres unmarked), for which, in the series on Huh-7.5/F-Luc cells (Huh-7.5 cells, dose series), the “CC50 (µM)” value is listed as “greater than maximum tested dose”. Further, in the series with Huh-7.5/F-Luc cells (at max. dose 5 µM), the “% cell viability at max. dose [5 µM]” value is recorded as 144.12%. In the series with SARS-CoV-2, the “Anti-SARS-CoV-2 screening on Calu-3 cells: viability [% of control]” value is 110.96 % of control and the “Anti-SARS-CoV-2 screening on Calu-3 cells: intracellular SARS-CoV-2 infection measured via immunofluorescence imaging [% of control]” value is 110.06 % of control. Further, the IC50 in the series with HCoV-229E (read-out: IC50) was 0.69 µM.
On to `CC[C@H](NC(=O)[C@H](CS(=O)(=O)CC1CC1)N[C@@H](c1ccc(F)cc1)C(F)(F)F)C(=O)C(=O)NC1CC1` [VBY-825, reference compound], for which, in the series with Huh-7.5/F-Luc cells (Huh-7.5 cells, dose series), the “CC50 (µM)” value was “greater than maximum tested dose”. The “% cell viability at max. dose [5 µM]” value with Huh-7.5/F-Luc cells (at max. dose 5 µM) was 147.45%. For the same molecule, in the series on SARS-CoV-2, the “Anti-SARS-CoV-2 screening on Calu-3 cells: viability [% of control]” value was 100.68 % of control and the “Anti-SARS-CoV-2 screening on Calu-3 cells: intracellular SARS-CoV-2 infection measured via immunofluorescence imaging [% of control]” value is on record as 101.42 % of control. In the series on HCoV-229E (setting [1]), the IC50 worked out at 0.21 µM. The “antiviral activity against HCoV-229E” value in the series with HCoV-229E (Huh-7.5/F-Luc cells) is listed as “antiviral activity”.
Turning to `CN(C)CCCN1c2ccccc2Sc2ccc(Cl)cc21` [Chlorpromazine69-09-0], the “CC50 (µM)” value in the series with Huh-7.5/F-Luc cells (Huh-7.5 cells, dose series) is reported as “greater than maximum tested dose”. The “% cell viability at max. dose [5 µM]” value in the series on Huh-7.5/F-Luc cells (at max. dose 5 µM) was 144.29%. Besides, in the series with SARS-CoV-2, the “Anti-SARS-CoV-2 screening on Calu-3 cells: viability [% of control]” value is reported as 118.10 % of control and the “Anti-SARS-CoV-2 screening on Calu-3 cells: intracellular SARS-CoV-2 infection measured via immunofluorescence imaging [% of control]” value is 120.36 % of control. Moreover, the IC50 in the series with HCoV-229E (setting [1]) was found to be 0.77 µM.
The matching figures for `O=S(=O)(Nc1ccc(CCNC[C@H](O)c2cccnc2)cc1)c1ccc(-c2nc(-c3ccc(C(F)(F)F)cc3)cs2)cc1` [L 796568]: “greater than maximum tested dose”, 149.63%, 84.86 % of control, 111.47 % of control and 0.77 µM.
Regarding `CN(C)C(C)(C)CSc1nc2ccccc2cc1-c1ccccc1` [ICI-170809], the “CC50 (µM)” value in the series with Huh-7.5/F-Luc cells (Huh-7.5 cells, dose series) is reported as “greater than maximum tested dose”. Further, in the series with Huh-7.5/F-Luc cells (at max. dose 5 µM), the “% cell viability at max. dose [5 µM]” value is on record as 138.76%. Moreover, in the series with SARS-CoV-2, the “Anti-SARS-CoV-2 screening on Calu-3 cells: viability [% of control]” value was 98.23 % of control and the “Anti-SARS-CoV-2 screening on Calu-3 cells: intracellular SARS-CoV-2 infection measured via immunofluorescence imaging [% of control]” value is recorded as 103.59 % of control. In addition, the IC50 with HCoV-229E (setting [1]) was 0.52 µM.

For the origin of these results see article PMC10916382, “Repurposing screen identifies novel candidates for broad-spectrum coronavirus antivirals and druggable host targets” (Antimicrobial Agents and Chemotherapy, 2024).
